Drawing on patent publication US10758534B2 (Vertex Pharmaceuticals Incorporated, priority 2014, dated 2020), this text covers EC30 for 23 compounds.

Each structure is given as a SMILES string.

The target of one experiment is T1, F508del (Homo sapiens, UniProt P13569, DEL508-508).
T1 construct: expressed in transfected cells
T1 sequence (P13569 with tags, fused parts or gaps DEL508-508): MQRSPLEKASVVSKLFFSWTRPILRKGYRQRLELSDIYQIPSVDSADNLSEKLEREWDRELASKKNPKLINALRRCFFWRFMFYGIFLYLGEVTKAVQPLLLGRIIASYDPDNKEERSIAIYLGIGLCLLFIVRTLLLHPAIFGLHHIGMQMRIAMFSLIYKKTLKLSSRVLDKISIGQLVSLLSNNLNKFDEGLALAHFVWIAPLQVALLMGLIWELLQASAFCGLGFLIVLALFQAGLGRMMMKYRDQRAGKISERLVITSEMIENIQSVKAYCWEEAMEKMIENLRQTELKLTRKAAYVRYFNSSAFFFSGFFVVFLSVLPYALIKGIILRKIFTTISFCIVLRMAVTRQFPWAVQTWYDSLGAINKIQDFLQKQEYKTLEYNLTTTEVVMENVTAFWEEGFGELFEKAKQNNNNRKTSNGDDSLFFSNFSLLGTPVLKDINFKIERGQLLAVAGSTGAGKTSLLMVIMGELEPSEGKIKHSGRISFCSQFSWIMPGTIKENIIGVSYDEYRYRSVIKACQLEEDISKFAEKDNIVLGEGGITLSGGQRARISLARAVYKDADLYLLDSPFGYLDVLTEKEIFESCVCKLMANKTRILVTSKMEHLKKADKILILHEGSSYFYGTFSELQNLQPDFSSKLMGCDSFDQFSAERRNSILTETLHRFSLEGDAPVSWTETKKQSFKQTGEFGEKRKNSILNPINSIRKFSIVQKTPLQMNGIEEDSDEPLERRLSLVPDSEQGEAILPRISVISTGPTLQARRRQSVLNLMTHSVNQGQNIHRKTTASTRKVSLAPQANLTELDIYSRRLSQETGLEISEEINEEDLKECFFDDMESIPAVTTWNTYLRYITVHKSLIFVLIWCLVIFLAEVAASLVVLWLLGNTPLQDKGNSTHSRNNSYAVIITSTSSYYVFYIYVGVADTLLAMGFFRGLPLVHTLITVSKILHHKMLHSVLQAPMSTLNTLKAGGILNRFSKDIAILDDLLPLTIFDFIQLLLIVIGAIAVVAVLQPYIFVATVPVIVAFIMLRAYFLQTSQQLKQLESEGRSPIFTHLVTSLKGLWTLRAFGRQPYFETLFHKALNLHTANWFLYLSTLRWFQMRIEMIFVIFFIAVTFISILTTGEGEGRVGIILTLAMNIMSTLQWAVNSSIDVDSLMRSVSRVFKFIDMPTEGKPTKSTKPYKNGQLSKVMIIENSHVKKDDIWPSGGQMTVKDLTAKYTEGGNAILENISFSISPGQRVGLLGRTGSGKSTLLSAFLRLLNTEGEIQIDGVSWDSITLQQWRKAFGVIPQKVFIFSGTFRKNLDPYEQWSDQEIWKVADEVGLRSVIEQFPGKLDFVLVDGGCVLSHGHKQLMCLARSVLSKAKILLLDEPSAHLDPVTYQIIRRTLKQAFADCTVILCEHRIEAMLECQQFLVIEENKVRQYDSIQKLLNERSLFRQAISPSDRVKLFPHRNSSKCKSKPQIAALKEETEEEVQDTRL
The experiment in a line: Protocol 2: FRET membrane potential optical assay (VIPR), identification of correction compounds. In kind it is cell-based. The conditions noted are these: F508del CFTR modulator activity; compounds of Table 1; read-out: EC30. The essentials:
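Mouse NIH3T3 cells, stable F508del; cpd 16 hrs, 37° C., serum-free; pos ctrl 27° C. 16 hrs. Rinse in Krebs Ringers, dye load, then add 10 μM forskolin + 20 μM genistein with Cl^−-free (gluconate) medium; depolarization by FRET voltage dyes.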
Usually EC30 stands for the concentration needed for an effect of 30%. Regarding `CC(C)CN(C)c1cccc(S(=O)(=O)NC(=O)c2cccnc2N2CC(C)CC2(C)C)n1` (centres unmarked) [Compound 2746], the EC30 is under 3000 nM.
Regarding `CC(C)COc1cc(F)cc(-c2ccc(C(=O)NS(=O)(=O)c3cccc(N)n3)c(C3CC(C)(C)CC3(C)C)n2)c1` (single isomer, unassigned) [Compound 2374, N-[(6-amino-2-pyridyl)sulfonyl]-6-(3-fluoro-5-isobutoxy-phenyl)-2-(2,2,4,4-tetramethylcyclopentyl)pyridine-3-carboxamide], the EC30 was under 3000 nM.
Still for that read-out and setting: with `C[C@@H]1CN(c2nc(-c3cccc(OC(F)(F)F)c3)ccc2C(=O)NS(=O)(=O)c2cccc(N)n2)C(C)(C)C1` [Compound 2366, N-[(6-amino-2-pyridyl)sulfonyl]-6-[3-(trifluoromethoxy)phenyl]-2-[(4S)-2,2,4-trimethylpyrrolidin-1-yl]pyridine-3-carboxamide] the figure was under 3000 nM; with `CCCOCCNc1cccc(S(=O)(=O)NC(=O)c2cccnc2N2CC(C)CC2(C)C)n1` (centres unmarked) [Compound 2602, N—[[6-(2-propoxyethylamino)-2-pyridyl]sulfonyl]-2-(2,2,4-trimethylpyrrolidin-1-yl)pyridine-3-carboxamide], 3000 to 10000 nM.
Turning to `CCOCCOCCN(C)c1ncc(-c2ccc(C(=O)NS(=O)(=O)c3cccc(N)n3)c(N3C[C@@H](C)CC3(C)C)n2)cc1C` [Compound 2681], the concentration for an effect of 30% (EC30) was under 3000 nM.
Turning to `CC1CN(c2ncccc2C(=O)NS(=O)(=O)c2cccc(OCCC3CCOCC3)n2)C(C)(C)C1` (centres unmarked) [Compound 2329, N—[[6-(2-tetrahydropyran-4-ylethoxy)-2-pyridyl]sulfonyl]-2-(2,2,4-trimethylpyrrolidin-1-yl)pyridine-3-carboxamide], the concentration for an effect of 30% (EC30) was under 3000 nM.
For `CC1(C)C(Cc2ccccc2)CCN1c1ncccc1C(=O)NS(=O)(=O)c1cccc(N)n1` (centres unmarked) [Compound 2275, N-[(6-amino-2-pyridyl)sulfonyl]-2-(3-benzyl-2,2-dimethyl-pyrrolidin-1-yl)pyridine-3-carboxamide], the EC30 lay in the range of 3000 to 10000 nM.
With `COc1c(F)cc(F)cc1-c1ccc(C(=O)NS(=O)(=O)c2ccc[nH]c2=O)c(N2C[C@@H](C)CC2(C)C)n1` [Compound 2496, 6-(3,5-difluoro-2-methoxy-phenyl)-N-[(2-oxo-1H-pyridin-3-yl)sulfonyl]-2-[(4S)-2,2,4-trimethylpyrrolidin-1-yl]pyridine-3-carboxamide], the concentration for an effect of 30% (EC30) was under 3000 nM.
`Cc1ccc(-c2ccc(C(=O)NS(=O)(=O)c3cccnc3N)c(N3C[C@@H](C)CC3(C)C)n2)cc1F` [Compound 2345, N-[(2-amino-3-pyridyl)sulfonyl]-6-(3-fluoro-4-methyl-phenyl)-2-[(4S)-2,2,4-trimethylpyrrolidin-1-yl]pyridine-3-carboxamide]: the EC30 was under 3000 nM.
Still for that read-out and setting: with `COc1cc(-c2ccc(C(=O)NS(=O)(=O)c3cccnc3N)c(N3C[C@@H](C)CC3(C)C)n2)ccc1O` [Compound 2614, N-[(2-amino-3-pyridyl)sulfonyl]-6-(4-hydroxy-3-methoxy-phenyl)-2-[(4S)-2,2,4-trimethylpyrrolidin-1-yl]pyridine-3-carboxamide] the figure was 3000 to 10000 nM.

Still in this experiment, the particulars now being: Table 3; compounds of Table 1 as modulators of CFTR activity; protocol not stated.
Turning to `COc1ncccc1S(=O)(=O)NC(=O)c1ccc(C(C)(C)C)nc1Oc1ccc(C)cc1C` [Compound 89, 6-tert-butyl-2-(2,4-dimethylphenoxy)-N-[(2-methoxy-3-pyridyl)sulfonyl]pyridine-3-carboxamide], the 30% effect concentration (EC30) entry is listed as “+++ (“+++” means <3 uM)”.
On to `C[C@H](c1ccccc1)n1nc(C(C)(C)C)cc1C(=O)NS(=O)(=O)c1cccc(N)c1` [Compound 540, N-(3-aminophenyl)sulfonyl-5-tert-butyl-2-[1(1R)-1-phenylethyl]pyrazole-3-carboxamide], for which the EC30 result is “+ (“+” means greater than 10 uM)”.
For the compound `Cc1cc(C)c(Oc2nc(C)c(C#N)cc2C(=O)NS(=O)(=O)c2cccc(N)c2)c(C)c1` [Compound 124, N-(3-aminophenyl)sulfonyl-5-cyano-6-methyl-2-(2,4,6-trimethylphenoxy)pyridine-3-carboxamide], the EC30 result is “++ (“++” means between 3 uM and 10 uM)”.
For the compound `Cc1cc(C)c(Cn2nc(OCc3ccccc3)cc2C(=O)NS(=O)(=O)c2cccc(N)c2)c(C)c1` [Compound 42, N-(3-aminophenyl)sulfonyl-5-benzyloxy-2-[(2,4,6-trimethylphenyl)methyl]pyrazole-3-carboxamide], the EC30 entry was “++ (“++” means between 3 uM and 10 uM)”.
Consider `Cc1cc(C)c(Cn2nc(C(C)C)cc2C(=O)NS(=O)(=O)c2cccc(N)c2)c(C)c1` [Compound 566, N-(3-aminophenyl)sulfonyl-5-isopropyl-2-[(2,4,6-trimethylphenyl)methyl]pyrazole-3-carboxamide], for which the EC30 entry was “+ (“+” means greater than 10 uM)”.
Consider `CC(C)Oc1ccc(-c2ccc(C(=O)NS(=O)(=O)c3cccc(N)n3)c(N3CCC(Cc4ccccc4)C3C)n2)cn1` (centres unmarked) [Compound 658, N-[(6-amino-2-pyridyl)sulfonyl]-2-(3-benzyl-2-methyl-pyrrolidin-1-yl)-6-(6-isopropoxy-3-pyridyl)pyridine-3-carboxamide], for which the concentration for an effect of 30% (EC30) result is “+++ (“+++” means <3 uM)”.
In the case of `CC(C)COc1cc(F)cc(-c2ccc(C(=O)NS(=O)(=O)c3ccccc3)c(N3CC(C)CC3(C)C)n2)c1` (centres unmarked) [Compound 620, N-(benzenesulfonyl)-6-(3-fluoro-5-isobutoxy-phenyl)-2-(2,2,4-trimethylpyrrolidin-1-yl)pyridine-3-carboxamide], the EC30 entry is “+++ (“+++” means <3 uM)”.
As to `COc1ccc(-c2cc(C(=O)NS(=O)(=O)c3ccccc3)n(Cc3c(C)cccc3C)n2)cc1` [Compound 49, N-(benzenesulfonyl)-2-[(2,6-dimethylphenyl)methyl]-5-(4-methoxyphenyl)pyrazole-3-carboxamide], the EC30 entry was “+++ (“+++” means <3 uM)”.
For `CC(C)COc1cc(F)cc(-c2ccc(C(=O)NS(=O)(=O)c3cccc(N)n3)c(N3CCCC3)n2)c1` [Compound 592, N-[(6-amino-2-pyridyl)sulfonyl]-6-(3-fluoro-5-isobutoxy-phenyl)-2-pyrrolidin-1-yl-pyridine-3-carboxamide], the concentration for an effect of 30% (EC30) entry is “+++ (“+++” means <3 uM)”.
Turning to `Cc1cc(C)c(Cn2nc(-c3cccc(C)c3F)cc2C(=O)NS(=O)(=O)c2cccc(N)c2)c(C)c1` [Compound 293, N-(3-aminophenyl)sulfonyl-5-(2-fluoro-3-methyl-phenyl)-2-[(2,4,6-trimethylphenyl)methyl]pyrazole-3-carboxamide], the EC30 result is given as “+++ (“+++” means <3 uM)”.
`COc1cccc(S(=O)(=O)NC(=O)C2c3ccccc3CN2Cc2c(C)cc(C)cc2C)c1` (centres unmarked) [Compound 16, N-(3-methoxyphenyl)sulfonyl-2-[(2,4,6-trimethylphenyl)methyl]isoindoline-1-carboxamide]: the EC30 entry is on record as “+++ (“+++” means <3 uM)”.
Turning to `Cc1cc(C)c(Oc2nc(C(C)(C)C)ccc2C(=O)NS(=O)(=O)c2c[nH]ccc2=O)c(C)c1` [Compound 107, 6-tert-butyl-N-[(4-oxo-1H-pyridin-3-yl)sulfonyl]-2-(2,4,6-trimethylphenoxy)pyridine-3-carboxamide], the EC30 result is on record as “+++ (“+++” means <3 uM)”.
Same read-out and setting: in the case of `COc1cc(C)cc(OC)c1-c1ccc(C(=O)NS(=O)(=O)c2cccc(N)n2)c(Oc2c(C)cc(C)cc2C)n1` [Compound 629, N-[(6-amino-2-pyridyl)sulfonyl]-6-(2,6-dimethoxy-4-methyl-phenyl)-2-(2,4,6-trimethylphenoxy)pyridine-3-carboxamide] it was “+++ (“+++” means <3 uM)”.
